Drawing on US5708034A, “Substituted sulfonimidamides, processes for their preparation, their use as a medicament or diagnostic, and medicament comprising them” (Hoechst Aktiengesellschaft, priority 1995, dated 1998), this text covers IC50 for four compounds.

pIC50: −log10 of the molar value. Structures can show the parent of a compound that is named as a salt.

T1 sequence (P23791 whole entry): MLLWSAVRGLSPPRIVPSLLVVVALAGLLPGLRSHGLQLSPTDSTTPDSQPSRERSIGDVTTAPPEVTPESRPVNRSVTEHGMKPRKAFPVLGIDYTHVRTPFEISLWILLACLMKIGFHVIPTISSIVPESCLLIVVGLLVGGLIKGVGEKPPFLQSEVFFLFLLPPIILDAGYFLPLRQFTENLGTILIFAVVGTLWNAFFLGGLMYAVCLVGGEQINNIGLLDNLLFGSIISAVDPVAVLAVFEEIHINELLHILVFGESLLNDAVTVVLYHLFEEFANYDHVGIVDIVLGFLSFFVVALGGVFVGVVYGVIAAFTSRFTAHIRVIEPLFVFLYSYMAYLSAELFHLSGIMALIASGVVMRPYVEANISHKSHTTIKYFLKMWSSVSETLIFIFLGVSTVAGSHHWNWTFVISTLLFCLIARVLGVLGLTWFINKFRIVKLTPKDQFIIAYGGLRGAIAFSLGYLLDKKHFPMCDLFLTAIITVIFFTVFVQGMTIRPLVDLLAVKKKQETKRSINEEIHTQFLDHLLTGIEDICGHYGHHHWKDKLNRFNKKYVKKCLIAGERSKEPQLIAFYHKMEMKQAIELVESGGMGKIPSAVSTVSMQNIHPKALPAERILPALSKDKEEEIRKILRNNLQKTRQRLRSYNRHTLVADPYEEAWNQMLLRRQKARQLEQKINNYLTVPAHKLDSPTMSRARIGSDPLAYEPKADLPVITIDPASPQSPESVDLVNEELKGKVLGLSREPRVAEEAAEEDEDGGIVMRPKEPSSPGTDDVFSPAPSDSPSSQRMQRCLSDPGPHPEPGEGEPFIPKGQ

The test concerns the target T1, Na^+ /H^+ exchanger of rabbit erythrocytes (Oryctolagus cuniculus, UniProt P23791).
T1 construct: determine the Na^+ influx into the erythrocytes via Na^+ /H^+ exchange by flame photometry; endogenous in cells; host or cells: erythrocytes from ear-artery blood of cholesterol-fed White New Zealand rabbits (animals from Ivanovas)
The test is described as follows: Inhibition of the Na^+ /H^+ exchanger of rabbit erythrocytes (amiloride-sensitive Na^+ influx, flame photometry). It counts as cell-based, rabbit (White New Zealand). The conditions noted are these: hyperosmolar salt-sucrose medium, pH 7.4, 37° C., sodium influx by flame photometry. From the text:
Inhibition of the Na^+ /H^+ exchanger of rabbit erythrocytes
White New Zealand rabbits (Ivanovas) received a standard diet with 2% cholesterol for six weeks in order to activate Na^+ /H^+ exchange and thus to be able to determine the Na^+ influx into the erythrocytes via Na^+ /H^+ exchange by flame photometry. The blood was taken from the ear arteries and rendered incoagulable by means of 25 IU of potassium heparin. A part of each sample was used for the duplicate determination of the hematocrit by centrifugation. Aliquots of 100 μl in each case were used to measure the Na^+ starting content of the erythrocytes.
In order to determine the amiloride-sensitive sodium influx, 100 μl of each blood sample were incubated in each case in 5 ml of a hyperosmolar salt-sucrose medium (mmol/l: 140 NaCl, 3 KCl, 150 sucrose, 0.1 ouabain, 20 tris-hydroxymethylaminomethane) at pH 7.4 and 37° C. The erythrocytes were then washed three times with ice-cold MgCl2 ouabain solution (mmol/l: 112 MgCl2, 0.1 ouabain) and hemolyzed in 2.0 ml of distilled water. The intracellular sodium content was determined by flame photometry.
The net Na^+ influx was calculated from the difference between sodium starting values and the sodium content of the erythrocytes after incubation. The amiloride-inhibitable sodium influx resulted from the difference between the sodium content of the erythrocytes after incubation with and without amiloride 3×10^-4 mol/l. This procedure was also used in the case of the compounds according to the invention.
Broadly, the pIC50 is the negative decadic logarithm of the IC50, by convention in mol/L. `CCN=S(=O)(c1ccc(F)cc1)N(CC)c1ccc(C(=O)N=C(N)N)cc1S(C)(=O)=O` (stereo not shown) [Example 1, 4-(4-Fluorobenzene-N,N'-diethylsulfimidamoyl)-3-methyl-sulfonylbenzoylguanidine, dihydrochloride]: the pIC50 is 3.17.

For `CCN=S(=O)(c1ccc(F)cc1)N(CC)c1ccc(C(=O)N=C(N)N)cc1C(F)(F)F` (stereo not shown) [Example 2, 4-(4-Fluorobenzene-N,N'-diethylsulfimidamoyl)-3-trifluoro-methylbenzoylguanidine, dihydrochloride], the negative logarithm of the IC50 (pIC50) was 4.28.

Consider `CS(=O)(=O)c1cc(C(=O)N=C(N)N)ccc1NS(=N)(=O)c1ccc(F)cc1` (stereo not shown) [Example 3, 3-Methylsulfonyl-4-(4-fluorobenzenesulfimidamoyl)benzoylguanidine], for which the pIC50 was 2.70.

As to `CN=S(=O)(NC)c1cc(C(=O)N=C(N)N)ccc1C(C)C` (stereo not shown) [Example 4, 2-isopropyl-5-guanidinocarbonylbenzenesulfonic acid N,N'-dimethylimidamide], the pIC50 is 2.22.
